≈ marks a conversion by molar mass, not a printed value.
What was measured:
Avena fatua [1] = assay: Drug level in Avena fatua at 0.1 g/l measured after 6 hr in presence of safener cloquintocet-mexyl; type: ADME, organism-based; conditions: in vivo
Lolium perenne [2] = assay: Drug level in Lolium perenne (perennial ryegrass) measured at 0.1 g/l after 6 hr; type: ADME, organism-based; conditions: in vivo
[3] = Solubility in water at 25 degC; type: physicochemical
Lolium perenne [4] = assay: Drug level in Lolium perenne (perennial ryegrass) measured at 0.1 g/l after 6 hr in presence of safener cloquintocet-mexyl; type: ADME, organism-based; conditions: in vivo
Hordeum vulgare [5] = assay: Drug level in winter Hordeum vulgare cv. Manitou (barley) at 0.1 g/l measured after 6 hr in presence of safener cloquintocet-mexyl; type: ADME, organism-based; conditions: in vivo
[6] = Aqueous hydrolysis of the compound at pH 9 at 20 degC; type: physicochemical; conditions: aqueous solution, read-out: DT50 (converted)
[7] = Aqueous hydrolysis of the compound at pH 4 at 20 degC; type: physicochemical; conditions: aqueous solution, read-out: DT50 (converted)
Triticum aestivum [8] = assay: Drug level in winter Triticum aestivum cv. Soisson (wheat) measured after 6 hr; type: ADME, organism-based; conditions: in vivo
Hordeum vulgare [9] = assay: Drug level in winter Hordeum vulgare cv. Manitou (barley) at 0.1 g/l measured after 6 hr; type: ADME, organism-based; conditions: in vivo
Hordeum vulgare [10] = assay: Drug metabolism in winter Hordeum vulgare cv. Manitou (barley) assessed as total inactive metabolites at 0.1 g/l measured after 16 hr; type: ADME, organism-based; conditions: in vivo
[11] = Aqueous hydrolysis of the compound at pH 5 at 20 degC; type: physicochemical; conditions: aqueous solution, read-out: DT50 (converted)
[12] = Lipophilicity, log P of the compound at 25 degC; type: physicochemical; conditions: octanol/water
Avena fatua [13] = assay: Drug level in Avena fatua at 0.1 g/l measured after 6 hr; type: ADME, organism-based; conditions: in vivo
[14] = Aqueous hydrolysis of the compound at pH 7 at 20 degC; type: physicochemical; conditions: aqueous solution, read-out: DT50 (converted)
Triticum aestivum [15] = assay: Drug level in winter Triticum aestivum cv. Soisson (wheat) measured after 6 hr in presence of safener cloquintocet-mexyl; type: ADME, organism-based; conditions: in vivo

Q: For CCc1cc(C)cc(CC)c1-c1c(OC(=O)C(C)(C)C)n2n(c1=O)CCOCC2 [PINOXADEN], which Drug uptake (Avena fatua [1]) is on record?
A: 0%

Q: What about the Drug uptake (Lolium perenne [2]) of the same compound?
A: 0%

Q: And the solubility [3]?
A: 200 µg/mL (≈ 499 µM)

Q: What about the Drug uptake (Lolium perenne [4]) of the same compound?
A: 0%

Q: And the Drug uptake (Hordeum vulgare [5])?
A: 1.5%

Q: And the half-life [6]?
A: 0.3 days

Q: And the half-life [7]?
A: 24.1 days

Q: What about the Drug uptake (Triticum aestivum [8]) of the same compound?
A: 0%

Q: And the Drug uptake (Hordeum vulgare [9])?
A: 2.1%

Q: And the Drug metabolism (Hordeum vulgare [10])?
A: 49.6%

Q: What about the half-life [11] of the same compound?
A: 25.3 days

Q: What about the logP [12] of the same compound?
A: 3.2

Q: What about the Drug uptake (Avena fatua [13]) of the same compound?
A: 0%

Q: And the half-life [14]?
A: 14.9 days

Q: And the Drug uptake (Triticum aestivum [15])?
A: 0%

Reference: ChEMBL document CHEMBL3045901, “Aryldiones incorporating a [1,4,5]oxadiazepane ring. Part 2: chemistry and biology of the cereal herbicide pinoxaden” (Pest Manag Sci, 2011)
